# Experimental data published in US20030135173A1 (priority 2001, published 2003).
# Where two headings read alike, the source gives them in different places.
# Tests used:
# S. aureus (MN8) = test: microbe, parasite or virus in culture; format: cell-based; conditions: Staphylococcus aureus; for inhibition at 0.2 %: 0.2% test compound; for inhibition at 0.5 %: 0.5% test compound
# S. aureus FRI-1169 = format: cell-based, Staphylococcus aureus
# S. aureus FRI-1187 [1] = format: cell-based, Staphylococcus aureus
# S. aureus FRI-1187 [2] = format: cell-based, Staphylococcus aureus; remark: listed apart in the source
# S. aureus strain RN 6390 = format: cell-based, Staphylococcus aureus
# [3] = read-out: Reduction of Toxin %, Table 2
# [4] = read-out: Reduction of Toxin %, Table 4
# [5] = read-out: Reduction of Toxin %, Table 3
compound,measurement,setting,value
O=C(O)c1ccccc1O [2-hydroxybenzoic acid],inhibition at 0.2 %,S. aureus (MN8); [3],93%
CC(=O)Nc1ccc(O)cc1 [4-Acetamidophenol],inhibition at 0.5 %,S. aureus (MN8); [4],79%
CC(=O)N[C@@H](Cc1ccc(O)cc1)C(=O)O [Acetyl tyrosine],inhibition at 0.5 %,S. aureus (MN8); [5],69%
O=C(O)c1cc(O)c(O)c(O)c1 [Gallic acid],inhibition at 0.5 %,S. aureus (MN8); [5],95%
OCCc1ccccc1 [Phenylethyl alcohol],inhibition at 0.5 %,S. aureus (MN8); [3],97%
same,inhibition at 0.5 %,S. aureus (MN8); [5],98%
same,inhibition at 0.5 %,S. aureus (MN8); [4],98%
same,effect on the growth of S. aureus cells,S. aureus FRI-1169,"minimal, if any, effect"
same,amount of exotoxin production,S. aureus FRI-1187 [1],significantly reduced
same,effect on the growth of S. aureus cells,S. aureus FRI-1187 [2],"minimal, if any, effect"
same,production of the alpha toxin,S. aureus strain RN 6390,significantly reduced
O=C(O)/C=C/c1ccccc1 [Trans-cinnamic acid],inhibition at 0.5 %,S. aureus (MN8); [5],82%
Nc1ccc(C(=O)O)cc1 [p-aminobenzoic acid],inhibition at 0.2 %,S. aureus (MN8); [3],89%
"COC(=O)c1ccc(O)cc1 [p-hydroxybenzoic acid, methyl ester]",inhibition at 0.2 %,S. aureus (MN8); [3],82%
same,production of the alpha toxin,S. aureus strain RN 6390,significantly reduced
